From patent publication US20130131161A1, “METHODS AND COMPOSITIONS FOR CARDIOVASCULAR DISEASES AND CONDITIONS” (priority 2009, published 2013)

System: Human umbilical vein endothelial cells (HUVECs)
Experiment: eNOS activity analysis: NO, ONOO− and NO/ONOO− release from HUVECs of 50 genotyped donors in response to LA-419 (Example 2)
Format: cell-based
Details: for Fold difference NO (mean ± sd) / Fold difference NO/ONOO− (mean ± sd) / Fold difference ONOO− (mean ± sd): (LA-419 1 μM)/(control)
Protocol: Concurrent measurements of NO and ONOO^− were carried out with tandem electrochemical nanosensors combined into one working unit with a total diameter of 200-500 nm (FIG. 1). Their design was based on previously developed and well-characterized chemically modified carbon-fiber technology (Malinski and Taha, 1992; Lvovich and Scheeline, 1997). Each of the nanosensors was made by depositing a sensing material on the tip of a carbon fiber (length 4-5 μm, diameter 0.2-0.5 μm). The fibers were sealed with nonconductive epoxy and electrically connected to copper wires with conductive silver epoxy. A conductive film of polymeric nickel (II) tetrakis(3-methoxy-4-hydroxyphenyl)porphyrin for the NO-sensor and polymeric film of Mn (III) [2.2]paracyclophanylporphyrin was used for the ONOO^−-sensor.
A module of NO/ONOO^− nanosensors (diameter 1-2 μm) with a platinum wire (0.1 mm) counter electrode and saturated calomel reference electrode (SCE) were applied. Differential pulse voltammetry (DPV) and amperometry were performed with a computer-based Gamry VFP600 multichannel potentiostat. DPV was used to measure the basal NO and ONOO^− concentrations, and amperometry was used to measure changes in NO and ONOO^− concentrations from its basal level with time. The DPV current at the peak potential characteristic for NO oxidation (0.65 V) and ONOO^− reduction (−0.45 V) was directly proportional to the local concentrations of these compounds in the immediate vicinity of the sensor. Linear calibration curves (current vs. concentration) were constructed for each sensor from 10 nM to 3 μM before and after measurements with aliquots of NO and ONOO^− standard solutions, respectively. The detection limit of the sensors was 1.0 nM.
The quantification of each analyte (concentration in nM) was performed using a maximum current from amperograms and standard calibration curves. A reproducibility of measurements with nanosensors is relatively high (between 5-12%). […] The sensors were slowly raised 5±2 μm from the surface of a single endothelial cell. The eNOS agonist, calcium ionophore A23187 (CaI) as well as the different drugs were then added to the surrounding media at the cell surface with a nanoinjector that was also positioned by a computer controlled-micromanipulator.
This example describes the genotype-specific response of the three major eNOS variants to 1 μM and 5 μM concentrations of LA-419. The three major genetic polymorphisms studied were the Glu298Asp variant (E298D or 894G→T) in exon 7 of […], the −786T→C variant in the promoter region, and the intron 4 polymorphism (VNTR). All of these variants have possible effects on the cardiovascular system and endothelial dysfunction. For this study, human umbilical vein endothelial cells (HUVECs) from 50 donors between 18 and 32 years of age were used.
For the analysis several analysis techniques were employed. First, the effect of genotype on NO and ONOO^− release was explored within the different concentrations of LA-419 (control, 1 μM, 5 μM), calculated as the average peak release (nmols/L) of NO, ONOO^−, and NO/ONOO^−. The effect of genotype on the net increase in NO, ONOO^−, and NO/ONOO^− for LA-419 (1 μM and 5 μM) as compared to control was also measured. In addition, an analysis was done on the effect of genotype on the % change in NO, ONOO^−, and NO/ONOO^− production for LA-419 (1 μM and 5 μM), calculated as:
% Change=[(avg. LA-419−avg. control)/(avg. control)]*100
Finally, an evaluation was undertaken concerning the effect of genotype on the production of NO, ONOO^−, and NO/ONOO^− as the fold difference of control for LA-419 (1 μM and 5 μM), calculated as:
Fold Difference=(avg. LA-419)/(avg. control)
Within each calculation technique the results were compared for statistical significance using a non-parametric ANOVA Kruskal-Wallace test or a non-parametric Mann-Whitney U test. Statistical significance was set at a p-value <0.05 in a two-tailed distribution. […]

[1] = 1 μM LA-419, Intron 4 variant b/a, a/a, c/c (n=14)
[2] = 1 μM LA-419, Intron 4 variant b/b (n=31)
[3] = 5 μM LA-419, Intron 4 variant b/a, a/a, c/c (n=14)
[4] = 5 μM LA-419, Intron 4 variant b/b (n=31)
[5] = Combination of all G894T + T-786C genotypes but G/G + T/T, n=31
[6] = Combination of all G894T + T-786C genotypes but T/T + C/C, n=46

CC(=O)SC1COC2C(O[N+](=O)[O-])COC12 (stereo not drawn) [LA-419, S-(6-Nitro-oxi-hexahydro-furo[3,2-b]furan-3-1-il)thioacetate]
NO % Change (mean ± sd) [1]: 11.76 (29.57) %
NO/ONOO− % Change (mean ± sd) [1]: 28.01 (62.22) %
ONOO− % Change (mean ± sd) [1]: −2.68 (29.78) %
NO % Change (mean ± sd) [2]: 13.46 (23.13) %
NO/ONOO− % Change (mean ± sd) [2]: 43.27 (71.09) %
ONOO− % Change (mean ± sd) [2]: −10.24 (27.17) %
NO % Change (mean ± sd) [3]: 16.16 (6.09) %
NO/ONOO− % Change (mean ± sd) [3]: 44.37 (12.85) %
ONOO− % Change (mean ± sd) [3]: −19.27 (5.27) %
NO % Change (mean ± sd) [4]: 13.52 (6.80) %
NO/ONOO− % Change (mean ± sd) [4]: 42.24 (17.73) %
ONOO− % Change (mean ± sd) [4]: −19.19 (7.76) %
Fold difference NO (mean ± sd) [5]: 1.14 (0.26)
Fold difference NO/ONOO− (mean ± sd) [5]: 1.41 (0.71)
Fold difference ONOO− (mean ± sd) [5]: 0.92 (0.30)
Fold difference NO (mean ± sd) [6]: 1.13 (0.25)
Fold difference NO/ONOO− (mean ± sd) [6]: 1.37 (0.68)
Fold difference ONOO− (mean ± sd) [6]: 0.93 (0.28)
Fold difference NO (mean ± sd) (G894T + T-786C G/G + T/C, n=8): 1.03 (0.17)
Fold difference NO/ONOO− (mean ± sd) (G894T + T-786C G/G + T/C, n=8): 1.07 (0.37)
Fold difference ONOO− (mean ± sd) (G894T + T-786C G/G + T/C, n=8): 1.07 (0.36)
Fold difference NO (mean ± sd) (G894T + T-786C G/G + T/T, n=18): 1.10 (0.20)
Fold difference NO/ONOO− (mean ± sd) (G894T + T-786C G/G + T/T, n=18): 1.28 (0.57)
Fold difference ONOO− (mean ± sd) (G894T + T-786C G/G + T/T, n=18): 0.94 (0.23)
Fold difference NO (mean ± sd) (G894T + T-786C G/T + C/C, n=1): 0.86 (0)
Fold difference NO/ONOO− (mean ± sd) (G894T + T-786C G/T + C/C, n=1): 0.49 (0)
Fold difference ONOO− (mean ± sd) (G894T + T-786C G/T + C/C, n=1): 1.77 (0)
Fold difference NO (mean ± sd) (G894T + T-786C G/T + T/C, n=13): 1.28 (0.33)
Fold difference NO/ONOO− (mean ± sd) (G894T + T-786C G/T + T/C, n=13): 1.70 (0.81)
Fold difference ONOO− (mean ± sd) (G894T + T-786C G/T + T/C, n=13): 0.81 (0.15)
Fold difference NO (mean ± sd) (G894T + T-786C G/T + T/T, n=4): 1.08 (0.03)
Fold difference NO/ONOO− (mean ± sd) (G894T + T-786C G/T + T/T, n=4): 1.12 (0.18)
Fold difference ONOO− (mean ± sd) (G894T + T-786C G/T + T/T, n=4): 0.98 (0.18)
Fold difference NO (mean ± sd) (G894T + T-786C T/T + C/C, n=1): 1.02 (0)
Fold difference NO/ONOO− (mean ± sd) (G894T + T-786C T/T + C/C, n=1): 1.23 (0)
Fold difference ONOO− (mean ± sd) (G894T + T-786C T/T + C/C, n=1): 0.83 (0)
Fold difference NO (mean ± sd) (G894T + T-786C T/T + C/C, n=3): 1.07 (0.06)
Fold difference NO/ONOO− (mean ± sd) (G894T + T-786C T/T + C/C, n=3): 1.20 (0.04)
Fold difference ONOO− (mean ± sd) (G894T + T-786C T/T + C/C, n=3): 0.89 (0.06)
Fold difference NO (mean ± sd) (G894T + T-786C T/T + T/C, n=2): 1.11 (0.36)
Fold difference NO/ONOO− (mean ± sd) (G894T + T-786C T/T + T/C, n=2): 2.25 (1.17)
Fold difference ONOO− (mean ± sd) (G894T + T-786C T/T + T/C, n=2): 0.52 (0.11)
Fold difference NO (mean ± sd) (G894T G/G & G/T, n=44): 1.13 (0.25)
Fold difference NO/ONOO− (mean ± sd) (G894T G/G & G/T, n=44): 1.34 (0.64)
Fold difference ONOO− (mean ± sd) (G894T G/G & G/T, n=44): 0.95 (0.27)
Fold difference NO (mean ± sd) (G894T G/G, n=26): 1.08 (0.19)
Fold difference NO/ONOO− (mean ± sd) (G894T G/G, n=26): 1.22 (0.52)
Fold difference ONOO− (mean ± sd) (G894T G/G, n=26): 0.98 (0.27)
Fold difference NO (mean ± sd) (G894T G/T & T/T, n=23): 1.18 (0.28)
Fold difference NO/ONOO− (mean ± sd) (G894T G/T & T/T, n=23): 1.53 (0.77)
Fold difference ONOO− (mean ± sd) (G894T G/T & T/T, n=23): 0.87 (0.26)
Fold difference NO (mean ± sd) (G894T G/T, n=18): 1.21 (0.30)
Fold difference NO/ONOO− (mean ± sd) (G894T G/T, n=18): 1.50 (0.77)
Fold difference ONOO− (mean ± sd) (G894T G/T, n=18): 0.90 (0.27)
Fold difference NO/ONOO− (mean ± sd) (G894T T/T, n=5): 1.62 (0.82)
Fold difference ONOO− (mean ± sd) (G894T T/T, n=5): 0.75 (0.21)
Fold difference NO (mean ± sd) (Intron 4 a/a, n=1): 1.09 (0)
Fold difference NO/ONOO− (mean ± sd) (Intron 4 a/a, n=1): 1.23 (0)
Fold difference ONOO− (mean ± sd) (Intron 4 a/a, n=1): 0.89 (0)
Fold difference NO (mean ± sd) (Intron 4 a/a, n=3): 0.95 (0.25)
Fold difference NO/ONOO− (mean ± sd) (Intron 4 a/a, n=3): 0.96 (0.45)
Fold difference ONOO− (mean ± sd) (Intron 4 a/a, n=3): 1.10 (0.34)
Fold difference NO (mean ± sd) (Intron 4 b/a, a/a, c/c, n=14): 1.13 (0.23)
Fold difference NO/ONOO− (mean ± sd) (Intron 4 b/a, a/a, c/c, n=14): 1.28 (0.62)
Fold difference ONOO− (mean ± sd) (Intron 4 b/a, a/a, c/c, n=14): 0.97 (0.30)
Fold difference NO (mean ± sd) (Intron 4 b/a, n=10): 1.21 (0.28)
Fold difference NO/ONOO− (mean ± sd) (Intron 4 b/a, n=10): 1.43 (0.65)
Fold difference ONOO− (mean ± sd) (Intron 4 b/a, n=10): 0.93 (0.31)
Fold difference NO (mean ± sd) (Intron 4 b/b, b/a, c/c, n=42): 0.95 (0.25)
Fold difference NO/ONOO− (mean ± sd) (Intron 4 b/b, b/a, c/c, n=42): 1.42 (0.69)
Fold difference ONOO− (mean ± sd) (Intron 4 b/b, b/a, c/c, n=42): 0.91 (0.27)
Fold difference NO (mean ± sd) (Intron 4 b/b, n=31): 1.13 (0.23)
Fold difference NO/ONOO− (mean ± sd) (Intron 4 b/b, n=31): 1.43 (0.71)
Fold difference ONOO− (mean ± sd) (Intron 4 b/b, n=31): 0.90 (0.27)
Fold difference NO (mean ± sd) (Intron 4 c/c, n=1): 0.73 (0)
Fold difference NO/ONOO− (mean ± sd) (Intron 4 c/c, n=1): 0.74 (0)
Fold difference ONOO− (mean ± sd) (Intron 4 c/c, n=1): 0.99 (0)
Fold difference NO (mean ± sd) (T-786C C/C, n=1): 1.02 (0)
Fold difference NO/ONOO− (mean ± sd) (T-786C C/C, n=1): 1.23 (0)
Fold difference ONOO− (mean ± sd) (T-786C C/C, n=1): 0.83 (0)
Fold difference NO (mean ± sd) (T-786C C/C, n=4): 1.02 (0.12)
Fold difference NO/ONOO− (mean ± sd) (T-786C C/C, n=4): 1.03 (0.36)
